Results from patent publication US10889589B2, “Bicyclic urea, thiourea, guanidine and cyanoguanidine compounds useful for the treatment of pain” (Array BioPharma Inc., priority 2012, dated 2021).

Each compound was assayed against recombinant human TrkA (Homo sapiens (Human), UniProt P04629) (assay: TrkA Kinase Binding Assay (LanthaScreen Eu)). Details: averaged IC50; read-out: TrkA Enzyme IC50.
Protocol: TrkA binding activity was determined in a TrkA LanthaScreen™ Eu Kinase Binding Assay. 5 nM His-tagged recombinant human TrkA (6HIS tagged cytoplasmic domain from Invitrogen, Catalog No. PV3144) was incubated with 4 nM Alexa-Fluor® Tracer 236 (Invitrogen Cat. No. PV5592), 2 nM biotinylated anti-His (Invitrogen Cat. No. PV6090), and 2 nM europium-labeled Streptavidin (Invitrogen Cat. No. PV5899), in buffer (25 mM MOPS, pH 7.5, 5 mM MgCl2, 0.005% Triton X-100). Three fold serial dilutions of compounds of the invention in DMSO were added to a final percentage of 2% DMSO. After 60-minute incubation at 22° C., the reaction was measured using the EnVision mutlimode plate reader (PerkinElmer) via TR-FRET dual wavelength detection at […]. The percent of control was calculated using a ratiometric emission factor. The IC50 values were determined by fitting a four parameter model to the percent of control data.
Table A provides averaged IC50 values for compounds of the invention when tested in the assay of Example A, where A represents an averaged IC50 value <100 nM; B represents an averaged IC50 value from 100 to 1,000 nM, and C represents an averaged IC50 value between >1,000 nM and 3,000 nM.

Sequence of recombinant human TrkA (P04629 440-796): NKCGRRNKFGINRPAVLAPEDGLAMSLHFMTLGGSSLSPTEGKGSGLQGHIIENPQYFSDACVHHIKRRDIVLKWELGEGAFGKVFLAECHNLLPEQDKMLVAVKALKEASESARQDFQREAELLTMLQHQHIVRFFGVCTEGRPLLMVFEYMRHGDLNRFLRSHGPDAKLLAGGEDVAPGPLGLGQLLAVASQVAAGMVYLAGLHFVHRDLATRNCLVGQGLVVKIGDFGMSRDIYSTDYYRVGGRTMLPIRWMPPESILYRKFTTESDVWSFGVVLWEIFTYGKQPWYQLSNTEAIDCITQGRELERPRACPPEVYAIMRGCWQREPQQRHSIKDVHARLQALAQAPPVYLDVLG

| Structure (SMILES) | IC50 [nM] |
| --- | --- |
| Cc1ncc(-c2nn(-c3ccccc3)c(NC(=O)N[C@@H]3c4ccccc4C4(CC4)[C@H]3O)c2C)cn1 (relative stereo) [Example 56, 1-(trans-2′-hydroxy-2′,3′-dihydrospiro[cyclopropane-1,1′-inden]-3′-yl)-3-(4-methyl-3-(2-methylpyrimidin-5-yl)-1-phenyl-1H-pyrazol-5-yl)urea] | < 100 |
| COc1ncc(-c2nn(-c3ccccc3)c(NC(=O)N[C@@H]3c4ccccc4C4(CC4)[C@H]3O)c2C)cn1 (relative stereo) [Example 57, 1-(trans-2′-hydroxy-2′,3′-dihydrospiro[cyclopropane-1,1′-inden]-3′-yl)-3-(3-(2-methoxypyrimidin-5-yl)-4-methyl-1-phenyl-1H-pyrazol-5-yl)urea] | < 100 |
| Cc1c(-c2cnn(C)c2)nn(-c2ccccc2)c1NC(=O)N[C@@H]1c2cc(F)c(F)cc2C2(CC2)[C@H]1O (relative stereo) [Example 58, 1-(trans-5′,6′-difluoro-2′-hydroxy-2′,3′-dihydrospiro[cyclopropane-1,1′-inden]-3′-yl)-3-(1′,4-dimethyl-1-phenyl-1H, 1′H-[3,4′-bipyrazol]-5-yl)urea] | < 100 |
| COc1nn(-c2ccccc2)c(NC(=O)N[C@@H]2c3cc(F)c(F)cc3C3(CC3)[C@H]2O)c1C (relative stereo) [Example 62, 1-(trans-5′,6′-difluoro-2′-hydroxy-2′,3′-dihydrospiro[cyclo-propane-1,1′-inden]-3′-yl)-3-(3-methoxy-4-methyl-1-phenyl-1H-pyrazol-5-yl)urea] | < 100 |
| Cc1c(-c2cnn(C)c2)nn(-c2ccccc2)c1NC(=O)N[C@@H]1c2cc(F)ccc2C2(CC2)[C@H]1O (relative stereo) [Example 63, 1-(1′,4-dimethyl-1-phenyl-1H1′H-[3,4′-bipyrazol]-5-yl)-3-(trans-5′-fluoro-2′-hydroxy-2′,3′-dihydrospiro[cyclopropane-1,1′-inden]-3′-yl)urea] | < 100 |
| Cc1c(-c2cnn(C)c2)nn(-c2ccccc2)c1NC(=O)N[C@@H]1c2ccc(F)cc2C2(CC2)[C@H]1O (relative stereo) [Example 64, 1-(1′,4-dimethyl-1-phenyl-1H,1′H-[3,4′-bipyrazol]-5-yl)-3-(trans-6′-fluoro-2′-hydroxy-2′,3′-dihydrospiro[cyclopropane-1,1′-inden]-3′-yl)urea] | < 100 |
| Cc1c(NC(=O)N[C@@H]2c3ccccc3C(C)(C)C[C@H]2O)n(-c2ccccc2)[nH]c1=O (relative stereo) [Example 95, 1-(trans-2-hydroxy-4,4-dimethyl-1,2,3,4-tetrahydronaphthalen-1-yl)-3-(4-methyl-5-oxo-2-phenyl-2,5-dihydro-1H-pyrazol-3-yl)urea] | < 100 |
| Cc1nn(-c2ccccc2)c(NC(=O)N[C@@H]2c3cc(C(N)=O)ccc3C(C)(C)C[C@H]2O)c1C (relative stereo) [Example 98, trans-8-(3-(3,4-dimethyl-1-phenyl-1H-pyrazol-5-yl)ureido)-7-hydroxy-5,5-dimethyl-5,6,7,8-tetrahydronaphthalene-2-carboxamide] | 1000 to 3000 |
| COC(=O)c1ccc2c(c1)[C@@H](NC(=O)Nc1c(C)c(C)nn1-c1ccccc1)[C@H](O)CC2(C)C (relative stereo) [Example 99, trans-methyl 8-(3-(3,4-dimethyl-1-phenyl-1H-pyrazol-5-yl)ureido)-7-hydroxy-5,5-dimethyl-5,6,7,8-tetrahydronaphthalene-2-carboxylate] | < 100 |
| Cc1c(OCC2CCN(C)CC2)nn(-c2ccccc2)c1NC(=O)N[C@@H]1c2ccccc2CC[C@H]1O (relative stereo) [Example 123, 1-(trans-2-hydroxy-1,2,3,4-tetrahydro-naphthalen-1-yl)-3-(4-methyl-3-((1-methylpiperidin-4-yl)methoxy)-1-phenyl-1H-pyrazol-5-yl)urea] | < 100 |
